Test results as given in PubChem BioAssay AID256 (DTP/NCI, 2004).
Where “and” joins values, the source holds several entries; their conditions need not be identical. Equal entries are not always repeated. Inconclusive results and toxic doses are left out.

System: CD2F1 mice, L1210 leukemia ip, survival T/C
Experiment: NCI In Vivo Anticancer Drug Screen. Data for tumor model L1210 Leukemia (intraperitoneal) in CD2F1 (CDF1) mice
Details: higher = longer survival
Method in brief: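 Mice carrying a transplanted tumor received test compound or vehicle alone. The value is the measurement in the treated group divided by that in the vehicle-treated control group.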

[1] = endpoint: mean survival time, dose: 100.0 mg/kg/injection, schedule: Q01DX009 (ip), vehicle: saline with Tween-80
[2] = endpoint: mean survival time, dose: 200.0 mg/kg/injection, schedule: Q01DX009 (ip), vehicle: saline with Tween-80
[3] = endpoint: mean survival time, dose: 400.0 mg/kg/injection, schedule: Q01DX009 (ip), vehicle: saline with Tween-80
[4] = endpoint: mean survival time, dose: 200.0 mg/kg/injection, schedule: Q04DX003 (ip), vehicle: saline with Tween-80
[5] = endpoint: mean survival time, dose: 400.0 mg/kg/injection, schedule: Q04DX003 (ip), vehicle: saline with Tween-80
[6] = endpoint: mean survival time, dose: 100.0 mg/kg/injection, schedule: Q04DX003 (ip), vehicle: saline with Tween-80

## CCCCCCCCCCCCCCCCCOc1c(I)cc(I)cc1I
endpoint: mean survival time, dose: 100.0 mg/kg/injection, schedule: Q01DX001 (ip), vehicle: saline with Tween-80
  T/C: 86 % of control
endpoint: mean survival time, dose: 200.0 mg/kg/injection, schedule: Q01DX001 (ip), vehicle: saline with Tween-80
  T/C: 94 % of control
endpoint: mean survival time, dose: 400.0 mg/kg/injection, schedule: Q01DX001 (ip), vehicle: saline with Tween-80
  T/C: 91 % of control

## NCCOc1ccc(-n2cnc3c(=O)[nH]c(N)nc32)cc1
endpoint: mean survival time, dose: 50.0 mg/kg/injection, schedule: Q04DX002 (ip), vehicle: saline with Tween-80
  T/C: 93 % of control
endpoint: mean survival time, dose: 100.0 mg/kg/injection, schedule: Q04DX002 (ip), vehicle: saline with Tween-80
  T/C: 96 % of control
endpoint: mean survival time, dose: 200.0 mg/kg/injection, schedule: Q04DX002 (ip), vehicle: saline with Tween-80
  T/C: 104 % of control

## CC(=O)N(O)c1ccc2c(c1)Cc1ccccc1-2
[1]
  T/C: 98 % of control
[2]
  T/C: 101 % of control
[3]
  T/C: 101 % of control

## COc1ccc2c3c1OC1C(=O)C4CC5(c6c(O)ccc(O)c64)C(C2)N(C)CCC315 (centres undefined)
[4]
  T/C: 86 % of control
[5]
  T/C: 86 % of control

## CCCCCCCCCCCCCCCC(=O)N1CC[N+](C)(CC2=CC3(Cl)C(Cl)=C(Cl)C2(Cl)C3(Cl)Cl)CC1 (centres undefined)
endpoint: mean survival time, dose: 75.0 mg/kg/injection, schedule: Q01DX001 (ip), vehicle: saline
  T/C: 93 % of control
endpoint: mean survival time, dose: 150.0 mg/kg/injection, schedule: Q01DX001 (ip), vehicle: saline
  T/C: 100 % of control

## CC1CC[N+](C)(CC(=O)c2ccc(-c3ccc(C(=O)C[N+]4(C)CCC(C)CC4)cc3)cc2)CC1 (centres undefined)
endpoint: mean survival time, dose: 0.02 mg/kg/injection, schedule: Q04DX003 (ip), vehicle: Klucel (hydroxypropylcellulose) (HPC)
  T/C: 96 % of control
endpoint: mean survival time, dose: 0.04 mg/kg/injection, schedule: Q04DX003 (ip), vehicle: Klucel (hydroxypropylcellulose) (HPC)
  T/C: 98 % of control
endpoint: mean survival time, dose: 0.08 mg/kg/injection, schedule: Q04DX003 (ip), vehicle: Klucel (hydroxypropylcellulose) (HPC)
  T/C: 87 % of control and 95 % of control

## CS(=O)(=O)Nc1ccc(C(=O)CCN2CCCCCC2)cc1
endpoint: median survival time, dose: 25.0 mg/kg/injection, schedule: Q01DX009 (ip), vehicle: saline
  T/C: 98 % of control
endpoint: median survival time, dose: 50.0 mg/kg/injection, schedule: Q01DX009 (ip), vehicle: saline
  T/C: 101 % of control
endpoint: median survival time, dose: 100.0 mg/kg/injection, schedule: Q01DX009 (ip), vehicle: saline
  T/C: 98 % of control

## CCCCCCC(=O)O.[Pb]
endpoint: mean survival time, dose: 75.0 mg/kg/injection, schedule: Q01DX001 (ip), vehicle: other
  T/C: 107 % of control
endpoint: mean survival time, dose: 150.0 mg/kg/injection, schedule: Q01DX001 (ip), vehicle: other
  T/C: 97 % of control
endpoint: mean survival time, dose: 300.0 mg/kg/injection, schedule: Q01DX001 (ip), vehicle: other
  T/C: 103 % of control

## Nc1c(/C=C/c2cc3cc(C4=NCCN4)ccc3o2)[nH]c2cc(C3=NCCN3)ccc12
endpoint: median survival time, dose: 3.12 mg/kg/injection, schedule: Q01DX009 (ip), vehicle: Klucel (hydroxypropylcellulose) (HPC)
  T/C: 124 % of control
endpoint: median survival time, dose: 18.0 mg/kg/injection, schedule: Q01DX005 (ip), vehicle: Klucel (hydroxypropylcellulose) (HPC)
  T/C: 178 % of control
endpoint: median survival time, dose: 25.0 mg/kg/injection, schedule: Q01DX005 (ip), vehicle: Klucel (hydroxypropylcellulose) (HPC)
  T/C: 160 % of control
endpoint: median survival time, dose: 30.0 mg/kg/injection, schedule: Q01DX005 (ip), vehicle: Klucel (hydroxypropylcellulose) (HPC)
  T/C: 297 % of control
endpoint: median survival time, dose: 50.0 mg/kg/injection, schedule: Q01DX005 (ip), vehicle: Klucel (hydroxypropylcellulose) (HPC)
  T/C: 171 % of control and 237 % of control

## CCC(=O)OCC[N+](C)(C)C
endpoint: mean survival time, dose: 100.0 mg/kg/injection, schedule: Q01DX001 (ip), vehicle: saline
  T/C: 100 % of control
endpoint: mean survival time, dose: 200.0 mg/kg/injection, schedule: Q01DX001 (ip), vehicle: saline
  T/C: 96 % of control
endpoint: mean survival time, dose: 400.0 mg/kg/injection, schedule: Q01DX001 (ip), vehicle: saline
  T/C: 96 % of control

## CCCCCCCCCCCCCCCC(=O)O[C@@]12C[C@@H](C)[C@@]3(O)[C@@H](C=C(CO)C[C@]4(O)C(=O)C(C)=C[C@@H]34)[C@@H]1C2(C)C
endpoint: mean survival time, dose: 0.06 mg/kg/injection, schedule: Q01DX009 (ip), vehicle: other
  T/C: 98 % of control
endpoint: mean survival time, dose: 0.12 mg/kg/injection, schedule: Q01DX009 (ip), vehicle: saline
  T/C: 103 % of control
endpoint: mean survival time, dose: 0.13 mg/kg/injection, schedule: Q01DX009 (ip), vehicle: other
  T/C: 88 % of control
endpoint: mean survival time, dose: 0.25 mg/kg/injection, schedule: Q01DX009 (ip), vehicle: other
  T/C: 94 % of control
endpoint: mean survival time, dose: 0.25 mg/kg/injection, schedule: Q01DX009 (ip), vehicle: saline
  T/C: 102 % of control
endpoint: mean survival time, dose: 0.5 mg/kg/injection, schedule: Q01DX009 (ip), vehicle: other
  T/C: 102 % of control
endpoint: mean survival time, dose: 0.5 mg/kg/injection, schedule: Q01DX009 (ip), vehicle: saline
  T/C: 103 % of control
endpoint: mean survival time, dose: 1.0 mg/kg/injection, schedule: Q01DX009 (ip), vehicle: saline
  T/C: 102 % of control

## COc1cc([C@@H]2c3cc4c(cc3[C@H](OC(C)=O)[C@H]3COC(=O)[C@@H]23)OCO4)cc(OC)c1OC
endpoint: mean survival time, dose: 100.0 mg/kg/injection, schedule: Q01DX009 (ip), vehicle: saline sonified
  T/C: 88 % of control

## NC(=S)c1cccc2ccccc12
endpoint: mean survival time, dose: 100.0 mg/kg/injection, schedule: Q04DX002 (ip), vehicle: Klucel (hydroxypropylcellulose) (HPC)
  T/C: 105 % of control
endpoint: mean survival time, dose: 200.0 mg/kg/injection, schedule: Q04DX002 (ip), vehicle: Klucel (hydroxypropylcellulose) (HPC)
  T/C: 98 % of control
endpoint: mean survival time, dose: 400.0 mg/kg/injection, schedule: Q04DX002 (ip), vehicle: Klucel (hydroxypropylcellulose) (HPC)
  T/C: 110 % of control

## CCCCCCCCCCCCOB(OCCCCCCCCCCCC)OCCCCCCCCCCCC
[6]
  T/C: 95 % of control
[4]
  T/C: 103 % of control
[5]
  T/C: 94 % of control

## CCOC(=O)CC1c2nc3ccccc3cc2CN1C(=O)CCOC(C)=O (centres undefined)
[1]
  T/C: 95 % of control
[6]
  T/C: 104 % of control
[2]
  T/C: 92 % of control
[4]
  T/C: 100 % of control
[3]
  T/C: 97 % of control
[5]
  T/C: 97 % of control

## C[CH2][Sn]([c]1ccccc1)([c]1ccccc1)[c]1ccccc1
endpoint: mean survival time, dose: 12.5 mg/kg/injection, schedule: Q04DX003 (ip), vehicle: saline with Tween-80
  T/C: 97 % of control
endpoint: mean survival time, dose: 25.0 mg/kg/injection, schedule: Q04DX003 (ip), vehicle: saline with Tween-80
  T/C: 100 % of control
endpoint: mean survival time, dose: 50.0 mg/kg/injection, schedule: Q04DX003 (ip), vehicle: saline with Tween-80
  T/C: 94 % of control
